Measurements taken from patent US20100298141A1, “SUBSTITUTED PYRIDINE N-OXIDE HERBICIDES” (E. I. DU PONT DE NEMOURS AND COMPANY, priority 2007, published 2010).

What was measured:
[1] = system: redroot pigweed; assay: Test A pre-/postemergence greenhouse test; format: in vivo, Amaranthus retroflexus; conditions: for Plant response rating, Pigweed: 0 to 100 scale where 0 is no effect and 100 is complete control; for Pigweed plant response rating: 0 to 100 scale
Summary of the method: (§1)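 Each test compound, dissolved in a non-phytotoxic solvent mixture with surfactant, was sprayed directly onto seeded soil (loam/sand blend) and, at the same moment, onto seedlings carrying one to two leaves. Around ten greenhouse days later, plants were rated visually for injury relative to untreated controls.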

[2] = system: cocklebur; assay: Test C pre-/postemergence test; format: in vivo, Xanthium strumarium; conditions: for Plant response rating, Cocklebur: 31 g ai/ha, scale 0 to 100 (0 no effect, 100 complete control)
Summary of the method: (§2)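 Compounds in a non-phytotoxic solvent with surfactant applied preemergence to seeded pots and, at the same time, postemergence to plants 2–18 cm tall (1- to 4-leaf stage). Paddy tests: pots flooded to 3 cm, compound applied into the water, depth held throughout.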

[3] = system: kochia; assay: Test C pre-/postemergence test; format: in vivo, Kochia scoparia
Summary of the method: as §2

[4] = system: velvetleaf; assay: Test C pre-/postemergence test; format: in vivo, Abutilon theophrasti; conditions: for Plant response rating, Velvetleaf: 31 g ai/ha, scale 0 to 100 (0 no effect, 100 complete control)
Summary of the method: as §2

[5] = system: eastern black nightshade; assay: Test C pre-/postemergence test; format: in vivo, Solanum ptycanthum; conditions: for Plant response rating, Nightshade: 31 g ai/ha, scale 0 to 100 (0 no effect, 100 complete control)
Summary of the method: as §2

[6] = system: wild oat; assay: Test C pre-/postemergence test; format: in vivo, Avena fatua; conditions: for Plant response rating, Oat, Wild: 31 g ai/ha, scale 0 to 100 (0 no effect, 100 complete control)
Summary of the method: as §2

[7] = system: lambsquarters; assay: Test C pre-/postemergence test; format: in vivo, Chenopodium album; conditions: for Plant response rating, Lambsquarters: 31 g ai/ha, scale 0 to 100 (0 no effect, 100 complete control)
Summary of the method: as §2

[8] = system: common ragweed; assay: Test C pre-/postemergence test; format: in vivo, Ambrosia elation; conditions: for Plant response rating, Ragweed: 31 g ai/ha, scale 0 to 100 (0 no effect, 100 complete control)
Summary of the method: as §2

[9] = system: wheat; assay: Test C pre-/postemergence test; format: in vivo, Triticum aestivum; conditions: for Plant response rating, Wheat: 31 g ai/ha, scale 0 to 100 (0 no effect, 100 complete control)
Summary of the method: as §2

[10] = system: Surinam grass; assay: Test C pre-/postemergence test; format: in vivo, Brachiaria decumbens; conditions: for Plant response rating, Surinam Grass: 31 g ai/ha, scale 0 to 100 (0 no effect, 100 complete control)
Summary of the method: as §2

[11] = system: wheat; assay: Test A pre-/postemergence greenhouse test; format: in vivo, Triticum aestivum; conditions: for Plant response rating, Wheat: 0 to 100 scale where 0 is no effect and 100 is complete control; for Wheat plant response rating: 0 to 100 scale
Summary of the method: as §1

[12] = system: morningglory; assay: Test A pre-/postemergence greenhouse test; format: in vivo, Ipomoea spp.; conditions: for Plant response rating, Morningglory: 0 to 100 scale where 0 is no effect and 100 is complete control; for Morningglory plant response rating: 0 to 100 scale
Summary of the method: as §1

[13] = system: common (oilseed) sunflower; assay: Test C pre-/postemergence test; format: in vivo, Helianthus annuus; conditions: for Plant response rating, Sunflower: 31 g ai/ha, scale 0 to 100 (0 no effect, 100 complete control)
Summary of the method: as §2

[14] = system: catchweed bedstraw; assay: Test C pre-/postemergence test; format: in vivo, Galium aparine
Summary of the method: as §2

[15] = system: downy brome; assay: Test C pre-/postemergence test; format: in vivo, Bromus tectorum; conditions: for Plant response rating, Bromegrass, Downy: 31 g ai/ha, scale 0 to 100 (0 no effect, 100 complete control)
Summary of the method: as §2

[16] = system: woolly cupgrass; assay: Test C pre-/postemergence test; format: in vivo, Eriochloa villosa; conditions: for Plant response rating, Cupgrass, Woolly: 31 g ai/ha, scale 0 to 100 (0 no effect, 100 complete control)
Summary of the method: as §2

[17] = system: giant foxtail; assay: Test A pre-/postemergence greenhouse test; format: in vivo, Setaria faberi; conditions: for Plant response rating, Foxtail, Giant: 0 to 100 scale where 0 is no effect and 100 is complete control; for Foxtail, Giant plant response rating: 0 to 100 scale
Summary of the method: as §1

[18] = system: blackgrass; assay: Test C pre-/postemergence test; format: in vivo, Alopecurus myosuroides; conditions: for Plant response rating, Blackgrass: 31 g ai/ha, scale 0 to 100 (0 no effect, 100 complete control)
Summary of the method: as §2

[19] = system: giant foxtail; assay: Test C pre-/postemergence test; format: in vivo, Setaria faberii; conditions: for Plant response rating, Foxtail, Giant: 31 g ai/ha, scale 0 to 100 (0 no effect, 100 complete control)
Summary of the method: as §2

[20] = Postemergence, 500 g ai/ha, 0 is no effect, 100 is complete control
[21] = Preemergence, 125 g ai/ha, 0 no effect, 100 complete control
[22] = Preemergence, 500 g ai/ha, 0 no effect, 100 complete control
[23] = 62 g ai/ha, Preemergence, scale 0 to 100
[24] = 125 g ai/ha, preemergence, scale 0 (no effect) to 100 (complete control)
[25] = preemergence, 250 g ai/ha, scale 0 (no effect) to 100 (complete control)
[26] = Preemergence, 31 g ai/ha, scale 0 to 100 (0 no effect, 100 complete control)

C#CCOc1c(CS(=O)(=O)c2cccc[n+]2[O-])c(C(F)(F)F)nn1C [Compound 103]
35: Sunflower plant response rating [13, 23] | Plant response rating, Sunflower ([13]; Preemergence)
40: Plant response rating, Oat, Wild ([6]; Preemergence)
50: Lambsquarters plant response rating [7, 23] | Lambsquarters plant response rating [7, 24] | Wheat plant response rating [11, 20] | Sunflower plant response rating [13, 24]
70: Morningglory plant response rating [12, 20] | Morningglory plant response rating [12, 22] | Bromegrass, Downy plant response rating [15, 24] | Bromegrass, Downy plant response rating [15, 25]
90: Nightshade plant response rating [5, 23] | Nightshade plant response rating [5, 24] | Plant response rating, Nightshade ([5]; Preemergence) | Surinam Grass plant response rating [10, 24] | Sunflower plant response rating [13, 25] | Foxtail, Giant plant response rating [17, 20]
85: Ragweed plant response rating [8, 25] | Cupgrass, Woolly plant response rating [16, 24]
100: Pigweed plant response rating [1, 22] | Kochia plant response rating [3, 24] | Kochia plant response rating [3, 25] | Velvetleaf plant response rating [4, 25] | Oat, Wild plant response rating [6, 24] | Oat, Wild plant response rating [6, 25] | Galium plant response rating [14, 25] | Cupgrass, Woolly plant response rating [16, 25] | Foxtail, Giant plant response rating [17, 22] | Blackgrass plant response rating [18, 23] | Blackgrass plant response rating [18, 24] | Plant response rating, Blackgrass ([18]; Preemergence) | Blackgrass plant response rating [18, 25] | Foxtail, Giant plant response rating [19, 24] | Foxtail, Giant plant response rating [19, 25]
60: Pigweed plant response rating [1, 20] | Pigweed plant response rating [1, 21] | Oat, Wild plant response rating [6, 23]
0: Cocklebur plant response rating [2, 23] | Cocklebur plant response rating [2, 24] | Plant response rating, Cocklebur ([2]; Preemergence) | Kochia plant response rating [3, 23] | Plant response rating, Velvetleaf ([4]; Preemergence) | Ragweed plant response rating [8, 23] | Plant response rating, Ragweed ([8]; Preemergence) | Wheat plant response rating [9, 23] | Plant response rating, Wheat ([9]; Preemergence) | Plant response rating, Surinam Grass ([10]; Preemergence) | Morningglory plant response rating [12, 21] | Bromegrass, Downy plant response rating [15, 23] | Plant response rating, Bromegrass, Downy ([15]; Preemergence) | Plant response rating, Cupgrass, Woolly ([16]; Preemergence)
98: Nightshade plant response rating [5, 25] | Wheat plant response rating [9, 25] | Galium plant response rating [14, 23] | Galium plant response rating [14, 24]
20: Plant response rating, Wheat ([11]; Postemergence, 125 g ai/ha) | Plant response rating, Morningglory ([12]; Postemergence, 125 g ai/ha)
80: Velvetleaf plant response rating [4, 24] | Ragweed plant response rating [8, 24] | Surinam Grass plant response rating [10, 23] | Wheat plant response rating [11, 22] | Plant response rating, Foxtail, Giant ([17]; Postemergence, 125 g ai/ha) | Foxtail, Giant plant response rating [17, 21]
55: Velvetleaf plant response rating [4, 23] | Plant response rating, Foxtail, Giant ([19]; Preemergence)
10: Plant response rating, Lambsquarters ([7]; Preemergence) | Wheat plant response rating [11, 21]
95: Lambsquarters plant response rating [7, 25] | Surinam Grass plant response rating [10, 25] | Foxtail, Giant plant response rating [19, 23]
30: Plant response rating, Pigweed ([1]; Postemergence, 125 g ai/ha) | Cocklebur plant response rating [2, 25] | Cupgrass, Woolly plant response rating [16, 23]
25: Wheat plant response rating [9, 24]

CCc1cc[n+]([O-])c([S+]([O-])Cc2c(C(F)(F)F)nn(C)c2OC(F)F)c1 (stereo not drawn) [Compound 101]
45: Bromegrass, Downy plant response rating [15, 23]
100: Pigweed plant response rating [1, 21] | Pigweed plant response rating [1, 22] | Kochia plant response rating [3, 25] | Nightshade plant response rating [5, 25] | Lambsquarters plant response rating [7, 23] | Lambsquarters plant response rating [7, 24] | Lambsquarters plant response rating [7, 25] | Ragweed plant response rating [8, 24] | Ragweed plant response rating [8, 25] | Wheat plant response rating [11, 22] | Morningglory plant response rating [12, 20] | Morningglory plant response rating [12, 22] | Galium plant response rating [14, 25] | Bromegrass, Downy plant response rating [15, 25] | Foxtail, Giant plant response rating [17, 21] | Foxtail, Giant plant response rating [17, 22]
95: Velvetleaf plant response rating [4, 25] | Nightshade plant response rating [5, 24] | Wheat plant response rating [9, 25] | Surinam Grass plant response rating [10, 24] | Cupgrass, Woolly plant response rating [16, 25] | Foxtail, Giant plant response rating [19, 24]
5: Sunflower plant response rating [13, 24]
98: Oat, Wild plant response rating [6, 25] | Surinam Grass plant response rating [10, 25] | Galium plant response rating [14, 24] | Foxtail, Giant plant response rating [19, 25]
15: Cocklebur plant response rating [2, 25]
65: Wheat plant response rating [9, 23]
30: Kochia plant response rating [3, 23] | Velvetleaf plant response rating [4, 23] | Blackgrass plant response rating [18, 23]
10: Cocklebur plant response rating [2, 24] | Plant response rating, Nightshade ([5]; Preemergence) | Ragweed plant response rating [8, 23]
70: Plant response rating, Pigweed ([1]; Postemergence, 125 g ai/ha) | Wheat plant response rating [11, 21] | Plant response rating, Morningglory ([12]; Postemergence, 125 g ai/ha) | Blackgrass plant response rating [18, 24] | Plant response rating, Foxtail, Giant ([19]; Preemergence)
85: Kochia plant response rating [3, 24] | Wheat plant response rating [9, 24] | Cupgrass, Woolly plant response rating [16, 24]
60: Plant response rating, Surinam Grass ([10]; Preemergence) | Wheat plant response rating [11, 20] | Sunflower plant response rating [13, 25]
50: Plant response rating, Oat, Wild ([6]; Preemergence) | Plant response rating, Wheat ([9]; Preemergence) | Plant response rating, Wheat ([11]; Postemergence, 125 g ai/ha) | Galium plant response rating [14, 23]
80: Nightshade plant response rating [5, 23] | Plant response rating, Lambsquarters ([7]; Preemergence) | Surinam Grass plant response rating [10, 23] | Morningglory plant response rating [12, 21] | Cupgrass, Woolly plant response rating [16, 23] | Plant response rating, Foxtail, Giant ([17]; Postemergence, 125 g ai/ha) | Foxtail, Giant plant response rating [19, 23]
40: Velvetleaf plant response rating [4, 24] | Plant response rating, Bromegrass, Downy ([15]; Preemergence) | Plant response rating, Cupgrass, Woolly ([16]; Preemergence)
90: Pigweed plant response rating [1, 20] | Oat, Wild plant response rating [6, 23] | Oat, Wild plant response rating [6, 24] | Bromegrass, Downy plant response rating [15, 24] | Foxtail, Giant plant response rating [17, 20] | Blackgrass plant response rating [18, 25]
0: Cocklebur plant response rating [2, 23] | Plant response rating, Cocklebur ([2]; Preemergence) | Plant response rating, Kochia [3, 26] | Plant response rating, Velvetleaf ([4]; Preemergence) | Plant response rating, Ragweed ([8]; Preemergence) | Sunflower plant response rating [13, 23] | Plant response rating, Sunflower ([13]; Preemergence) | Plant response rating, Galium [14, 26] | Plant response rating, Blackgrass ([18]; Preemergence)
